Tests used:
Type in all cases: cell-based, Blumea balsamifera
[1] = system: B. balsamifera somatic cells; test: Effects of different 6-BA concentrations on induction of adventitious tetraploid buds from root segments; conditions: for Induction rate %: MS Medium with 0.05 mg/L NAA, 120 mg/L colchicine, root segment about 6.0 cm, 60 days
Source text: (§1) In the examples, effective root segment refers to uncontaminated root segment; induction rate refers to the percentage of the total number of adventitious tetraploid buds formed by induction accounting for the total number of diploid explants, and the calculation formula is: induction rate (%)=(total number of adventitious tetraploid buds/total number of diploid explants)×100%. Chimera rate (%)=(total number of adventitious buds of chimera/total number of adventitious buds)×100%.
MS Medium was used as a basal medium, which was supplemented with 0.05 mg/L NAA, 120 mg/L colchicine, 30 g/L sucrose, 6 g/L agar, and 6-BA of different concentrations (0, 1.0, 1.5, and 2.0 mg/L, respectively, 0 mg/L as the control group). Culture media were prepared individually, segmented root tissues (with a root segment length of about 6.0 cm) were inoculated, and contaminated root explants were excluded after 60 days. The number of tetraploid buds was counted, and the doubling efficiency was calculated.

[2] = system: B. balsamifera somatic cells; test: Effects of different colchicine concentrations on induction of adventitious tetraploid buds from root segments; conditions: for Induction rate %: MS Medium with 1.0 mg/L 6-BA, 0.05 mg/L NAA, root segment about 4.0 cm, 60 days
Source text: as §1
MS Medium was used as a basal medium, which was supplemented with 1.0 mg/L 6-BA, 0.05 mg/L NAA, 30 g/L sucrose, 6 g/L agar, and colchicine of different concentrations (50, 70, 90, 120, and 150 mg/L, respectively). Culture media were prepared individually, and segmented root tissues (with a root segment length of about 4.0 cm) were inoculated. Chromosome ploidy identification was conducted on the formed adventitious buds after 60 days. The number of adventitious tetraploid buds was counted, and the doubling induction rate was calculated.

[3] = system: root explants of diploid B. balsamifera; test: Effects of different NAA concentrations on induction of adventitious tetraploid buds from root segments; conditions: for Induction rate %: MS Medium with 1.0 mg/L 6-BA, 120 mg/L colchicine, root segment about 4.0 cm, 60 days
Source text: as §1
MS Medium was used as a basal medium, which was supplemented with 1.0 mg/L 6-BA, 120 mg/L colchicine, 30 g/L sucrose, 6 g/L agar, and NAA of different concentrations (0, 0.025, 0.05, 0.075, and 0.1 mg/L, respectively, 0 mg/L as the control group). Culture media were prepared individually, and segmented root tissues (with a root segment length of about 4.0 cm) were inoculated. Chromosome ploidy identification was conducted on adventitious buds after 60 days. The number of adventitious tetraploid buds was counted, and the induction rate was calculated.

`c1ccc(CNc2ncnc3nc[nH]c23)cc1` [6-BA, 6-benzylaminopurine] was tested, and the “effect of inducing the doubling of the somatic cells of the root explants and dedifferentiating into adventitious tetraploid buds” value ([1]; 6-BA 1.0 mg/L, compared with 0, 1.5 and 2.0 mg/L) was “optimal”, the “Induction rate %” value ([1]; 6-BA 1.0 mg/L) was 7.75% and the “Induction rate %” value ([1]; 6-BA 1.5 mg/L) was 5.5%. For the same molecule, the “Induction rate %” value ([1]; 6-BA 2.0 mg/L) was 4.17%.

In the case of `COc1cc2c(c(OC)c1OC)-c1ccc(OC)c(=O)cc1[C@@H](NC(C)=O)CC2` [Colchicine, colchicine], the Induction rate % ([2]; colchicine 50 mg/L) is reported as 0%, the Induction rate % ([2]; colchicine 70 mg/L) is reported as 0% and the Induction rate % ([2]; colchicine 90 mg/L) is reported as 2.08%. For the same molecule, the “effect of inducing root explants of diploid B. balsamifera to form adventitious tetraploid buds” value ([2]; colchicine 120 mg/L, compared with 50, 70, 90 and 150 mg/L) was “optimal”, the Induction rate % ([2]; colchicine 120 mg/L) was 10.42% and the Induction rate % ([2]; colchicine 150 mg/L) was 4.17%.

For `O=C(O)Cc1cccc2ccccc12` [NAA, 1-naphthaleneacetic acid], the Induction rate % ([3]; NAA 0.025 mg/L) was 2.08%, the doubling effect ([3]; NAA 0.05 mg/L, compared with 0, 0.025, 0.075 and 0.1 mg/L) was “optimal” and the Induction rate % ([3]; NAA 0.05 mg/L) was 10.42%. The Induction rate % ([3]; NAA 0.075 mg/L) was 4.17% and the Induction rate % ([3]; NAA 0.1 mg/L) was 3.13%.
